Test results: patent US9771359B1, “Substituted oxazole- and thiazole-based carboxamide and urea derivatives as vanilloid receptor ligands II” (MEDIFRON DBT INC., priority 2014, dated 2017)

Target: vanilloid receptor 1 (VR1/TRPV1) (Homo sapiens (Human), UniProt Q8NER1)
Assay: FLIPR assay, Ca2+ influx in CHO K1 cells transfected with the human VR1 gene
Format: cell-based
Settings: for compound-alone effect on Ca2+ influx (agonist / partial agonist): compound 5 μM, % activation compared with control capsaicin 10 μM; for Ki: displacement of capsaicin 100 nM, Ki from IC50 by Cheng-Prusoff equation, read-out: (f) Ki (human) [nM] Cap
Protocol: Furthermore, preference may be given to compounds according to the first aspect of the invention that cause a 50% displacement of capsaicin, which is present at a concentration of 100 nM, in a FLIPR assay with CHO K1 cells which were transfected with the human VR1 gene at a concentration of less than 2 000 nM, preferably less than 1 000 nM, particularly preferably less than 300 nM, most particularly preferably less than 100 nM, even more preferably less than 75 nM, additionally preferably less than 50 nM, most preferably less than 10 nM. In the process, the Ca^2+ influx is quantified in the FLIPR assay with the aid of a Ca^2+-sensitive dye (type Fluo-4, Molecular Probes Europe BV, Leiden, the Netherlands) in a fluorescent imaging plate reader (FLIPR, Molecular Devices, Sunnyvale, USA), as described hereinafter.
The FLIPR protocol consists of 2 substance additions during a kinetic measurement. First the compounds to be tested (5 μM) are pipetted onto the cells and the Ca^2+ influx is determined in comparison to the control (capsaicin 10 μM), providing the result as % activation and representing the compound-alone effect (calculation at peak signal related to baseline). […] After 5 min incubation, the Ca^2+ influx is related to an injection of 100 nM of capsaicin and thereby the antagonistic effect of the test compounds detected.
Desensitising agonists and antagonists lead to suppression of the Ca^2+ influx. The % inhibition is calculated compared to the maximum achievable inhibition with 10 μM of capsaicin. Triple analyses (n=3) are carried out and repeated in at least 3 independent experiments.
Starting from the percentage displacement caused by different concentrations of the compounds to be tested of general formula I, IC50 inhibitory concentrations which cause a 50-% displacement of capsaicin were calculated. Ki values for the test substances were obtained by conversion by means of the Cheng-Prusoff equation (Cheng, Prusoff; Biochem. Pharmacol. 22, 3099-3108, 1973).
Chinese hamster ovary cells (CHO K1 cells, European Collection of Cell Cultures (ECACC) United Kingdom) are stably transfected with the VR1 gene. For functional testing, these cells are plated out on poly-D-lysine-coated black 96-well plates having a clear base (BD Biosciences, Heidelberg, Germany) at a density of 25,000 cells/well. The cells are incubated overnight at 37° C. and 5% CO2 in a culture medium (Ham's F12 nutrient mixture, 10% by volume of FCS (foetal calf serum), 18 μg/ml of L-proline). The next day the cells are incubated with Fluo-4 (Fluo-4 2 μM, 0.01% by volume of Pluronic F127, Molecular Probes in HBSS (Hank's buffered saline solution), Gibco Invitrogen GmbH, Karlsruhe, Germany) for 30 min at 37° C. Subsequently, the plates are washed three times with HBSS buffer and after further incubation for 15 min at RT used for Ca^2+ measurement in a FLIPR assay. The Ca^2+-dependent fluorescence is measured before and after the addition of the substances to be tested (λex wavelength=488 nm, λem=540 nm). Quantification is carried out by measuring the highest fluorescence intensity (FC, fluorescence counts) over time.

Chain of vanilloid receptor 1 (VR1/TRPV1) (Q8NER1 whole entry): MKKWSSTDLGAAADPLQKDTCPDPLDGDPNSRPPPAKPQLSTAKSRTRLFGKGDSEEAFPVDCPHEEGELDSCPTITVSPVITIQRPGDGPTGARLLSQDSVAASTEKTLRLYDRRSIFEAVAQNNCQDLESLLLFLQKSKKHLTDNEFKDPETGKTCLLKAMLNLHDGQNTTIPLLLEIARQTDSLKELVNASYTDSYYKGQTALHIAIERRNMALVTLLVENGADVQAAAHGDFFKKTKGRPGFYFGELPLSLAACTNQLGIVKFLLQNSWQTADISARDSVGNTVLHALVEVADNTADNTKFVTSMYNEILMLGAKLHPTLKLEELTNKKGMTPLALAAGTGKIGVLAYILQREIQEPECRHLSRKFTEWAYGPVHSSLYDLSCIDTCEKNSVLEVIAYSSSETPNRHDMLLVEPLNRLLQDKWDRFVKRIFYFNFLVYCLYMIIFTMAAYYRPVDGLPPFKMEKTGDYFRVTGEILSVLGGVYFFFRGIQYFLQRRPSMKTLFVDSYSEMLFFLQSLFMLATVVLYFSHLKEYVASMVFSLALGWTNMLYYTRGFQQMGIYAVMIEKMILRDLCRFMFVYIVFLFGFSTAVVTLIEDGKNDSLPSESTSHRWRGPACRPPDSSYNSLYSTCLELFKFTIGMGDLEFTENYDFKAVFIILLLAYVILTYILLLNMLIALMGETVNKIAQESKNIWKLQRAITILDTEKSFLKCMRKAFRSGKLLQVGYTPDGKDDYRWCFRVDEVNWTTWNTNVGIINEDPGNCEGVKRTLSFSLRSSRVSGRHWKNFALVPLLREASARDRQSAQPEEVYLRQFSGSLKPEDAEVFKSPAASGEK

Compound	Ki [nM]	compound-alone effect on Ca2+ influx (agonist / partial agonist)
CC(C)(C)c1nc(-c2cccc(Cl)c2)c(CNC(=O)Nc2ccc3cnccc3c2)s1 [EX-52, 1-((2-(tert-butyl)-4-(3-chlorophenyl)thiazol-5-yl)methyl)-3-(isoquinolin-6-yl)urea]		AG (a Ca^2+ influx of >60% relates to a pure agonist (AG))
CC(C)(C)c1nc(-c2cccc(Cl)c2)c(CNC(=O)Nc2cccc3ncccc23)s1 [EX-53, 1-((2-(tert-butyl)-4-(3-chlorophenyl)thiazol-5-yl)methyl)-3-(quinolin-5-yl)urea]		AG (a Ca^2+ influx of >60% relates to a pure agonist (AG))
CC(C)(C)c1nc(-c2cccc(Cl)c2)c(CNC(=O)Nc2ccc3c(c2)CCC3)s1 [EX-55, 1-((2-(tert-butyl)-4-(3-chlorophenyl)thiazol-5-yl)methyl)-3-(2,3-dihydro-1H-inden-5-yl)urea]	12.3	
CC(C)(C)c1nc(-c2cccc(Cl)c2)c(CNC(=O)Nc2ccc(CNS(C)(=O)=O)c(F)c2)s1 [EX-57, N-(4-(3-((2-(tert-butyl)-4-(3-chlorophenyl)thiazol-5-yl)methyl)ureido)-2-fluorobenzyl)methanesulfonamide]	6.6	

Second part, led by results:

Ki [nM]	Compound	compound-alone effect on Ca2+ influx (agonist / partial agonist)
2.9	CC(C)(C)c1nc(-c2cccc(Cl)c2)c(CNC(=O)Nc2cccc3c2CCC3)s1 [EX-51, 1-((2-(tert-butyl)-4-(3-chlorophenyl)thiazol-5-yl)methyl)-3-(2,3-dihydro-1H-inden-4-yl)urea]	pAG (A Ca^2+ influx of 10%-60% reveals a partial agonist (pAG))
5.9	CC(C)(C)c1nc(-c2cccc(Cl)c2)c(CNC(=O)Nc2ccc3c(c2)OCCO3)s1 [EX-54, 1-((2-(tert-butyl)-4-(3-chlorophenyl)thiazol-5-yl)methyl)-3-(2,3-dihydrobenzo[b][1,4]dioxin-6-yl)urea]	
0.1	CC(C)(C)c1nc(-c2cccc(Cl)c2)c(CNC(=O)Nc2cccc3cnccc23)s1 [EX-56, 1-((2-(tert-butyl)-4-(3-chlorophenyl)thiazol-5-yl)methyl)-3-(isoquinolin-5-yl)urea]	
2.3	Cc1cccc(-c2nc(C(C)(C)C)sc2CNC(=O)Nc2ccc(CNS(C)(=O)=O)c(F)c2)c1 [EX-58, N-(4-(3-((2-(tert-butyl)-4-(m-tolyl)thiazol-5-yl)methyl)ureido)-2-fluorobenzyl)methanesulfonamide]	
1.1	CC(C)(C)c1nc(-c2cccc(Cl)c2)c(CNC(=O)Nc2ccc(CO)c(F)c2)s1 [EX-59, 1-((2-(tert-butyl)-4-(3-chlorophenyl)thiazol-5-yl)methyl)-3-(3-fluoro-4-(hydroxymethyl)phenyl)urea]	pAG (A Ca^2+ influx of 10%-60% reveals a partial agonist (pAG))
3.2	Cc1cccc(-c2nc(C(C)(C)C)sc2CNC(=O)Nc2ccc(CO)c(F)c2)c1 [EX-60, 1-((2-(tert-butyl)-4-(m-tolyl)thiazol-5-yl)methyl)-3-(3-fluoro-4-(hydroxymethyl)phenyl)urea]	pAG (A Ca^2+ influx of 10%-60% reveals a partial agonist (pAG))
